Series [1] has as its target T1, α1B adrenoceptor (Homo sapiens, UniProt P35368).
T1 construct: Eurofins
T1 sequence (P35368 1-520): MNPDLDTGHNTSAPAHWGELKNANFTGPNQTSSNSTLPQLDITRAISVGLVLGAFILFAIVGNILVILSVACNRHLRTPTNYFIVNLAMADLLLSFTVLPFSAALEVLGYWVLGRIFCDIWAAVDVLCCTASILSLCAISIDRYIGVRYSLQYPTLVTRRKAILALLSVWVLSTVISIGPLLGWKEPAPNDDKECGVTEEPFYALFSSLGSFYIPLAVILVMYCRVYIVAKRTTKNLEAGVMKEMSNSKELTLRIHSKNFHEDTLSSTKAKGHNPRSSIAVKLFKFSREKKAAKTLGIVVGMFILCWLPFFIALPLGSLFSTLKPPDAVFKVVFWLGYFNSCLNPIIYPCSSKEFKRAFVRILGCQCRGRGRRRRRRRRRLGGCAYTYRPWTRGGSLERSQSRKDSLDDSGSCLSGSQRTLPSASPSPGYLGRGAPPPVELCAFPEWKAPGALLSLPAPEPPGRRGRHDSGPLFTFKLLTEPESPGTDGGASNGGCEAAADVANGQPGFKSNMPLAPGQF
In words: Radioligand binding assay. How it is done: (§1) Secondary pharmacology assays were performed at Eurofins using standard experimental techniques against a total of 86 targets across a broad pharmacological space. Assay details along with experimental protocols are described at https://www.eurofinsdiscoveryservices.com. […] Assays measuring substrate turnover or phosphorylation by isolated proteins were used for kinase and enzyme targets, allowing direct determination of the mode of action of the compounds. […] Assays were run in eight points concentration response mode with half log dilutions and IC50, EC50 or Ki (Cheng and Prusoff [1973]) values determined.

Series [2] can be described thus: Liver mass spectrometry imaging. It is filed as in vivo, rat. How it is done: Liver MSI. Tissue samples were snap frozen in dry ice cooled isopentane. Frozen samples were embedded in a HPMA/PVP hydrogel as previously detailed (Dannhorn et al. 2020). Tissue sectioning was performed using a CM1950 cryostat microtome (Leica Biosystems, Nussloch, Germany) at a section thickness of 10 µm. The tissue sections for desorption electrospray ionisation MSI (DESI-MSI), and matrix assisted laser desorption ionisation (MALDI-MSI) were immediately thaw mounted onto Superfrost or indium tin oxide coated microscope slides respectively. Tissue sections for positive ion mode DESI-MSI were washed with xylene for 1 minute to reduce ion suppression of metabolites of interest.
MSI analysis of most metabolites was performed by DESI-MSI and analysis of glutathione and glutathione disulphide was performed with MALDI-MSI. DESI-MSI analysis was carried out using a Q-Exactive mass spectrometer (Thermo Scientific, Bremen, Germany) equipped with an automated 2D-DESI ion source (Prosolia Inc., Indianapolis, IN, USA). Experiments were carried out in both positive and negative mode with a mass range up to a m/z of 1000, with a nominal mass resolution of 70,000. The injection time was fixed to 150 ms resulting in a scan rate of 3.8 pixel/s. […]

The target in series [3] is T2, Thromboxane A2 synthase (Homo sapiens, UniProt P24557).
T2 construct: Eurofins
In words: Enzyme assay. It is filed as biochemical. How it is done: as §1

Series [4] has as its target T3, Glycogen synthase kinase-3 β (Homo sapiens, UniProt P49841).
T3 construct: Eurofins
In words: Enzyme assay. It is filed as biochemical. How it is done: as §1

In series [5] the target is T4, Fibroblast growth factor receptor 1 kinase (FGFR1 kinase) (Homo sapiens, UniProt P11362).
T4 construct: Eurofins
The experiment in a line: Enzyme assay. It is filed as biochemical. How it is done:
as §1

Series [6] addresses T5, Phosphodiesterase PDE10A2 (Homo sapiens, UniProt Q9Y233).
T5 construct: Eurofins
The experiment in a line: Enzyme assay. It is filed as biochemical. How it is done:
as §1

For series [7], the target named is T6, Phosphodiesterase PDE4D2 (Homo sapiens, UniProt Q08499).
T6 construct: Eurofins
In words: Enzyme assay. It is filed as biochemical. How it is done: as §1

The target of series [8] is T7, Neurotrophic receptor kinase 1 (NRK1) (Homo sapiens, UniProt P04629).
T7 construct: Eurofins
In words: Enzyme assay. It is filed as biochemical. How it is done:
as §1

Series [9] has as its target T8, Kinase insert domain receptor kinase (KDR) (Homo sapiens, UniProt P35968).
T8 construct: Eurofins
In words: Enzyme assay. It is filed as biochemical. How it is done: as §1

For series [10], the target named is T9, Aurora A kinase (Homo sapiens, UniProt O14965).
T9 construct: Eurofins
In words: Enzyme assay. It is filed as biochemical. How it is done:
as §1

In series [11] the target is T10, Prostaglandin-endoperoxide synthase 2 (COX2) (Homo sapiens, UniProt P35354).
T10 construct: Eurofins
In words: Enzyme assay. It is filed as biochemical. How it is done:
as §1

SMILES strings stand for the structures.

The text below walks through data of article PMC11272821, “Mechanistic safety assessment via multi-omic characterisation of systemic pathway perturbations following in vivo MAT2A inhibition” (Archives of Toxicology, 2024).

In general, Ki refers to a measure of affinity in units of concentration, obtained from inhibition or displacement. A low value points to a stronger hold on the target. The IC50 is the concentration at which inhibition is half-maximal. Read a low IC50 as inhibition by little substance.

T7 sequence (P04629 33-796): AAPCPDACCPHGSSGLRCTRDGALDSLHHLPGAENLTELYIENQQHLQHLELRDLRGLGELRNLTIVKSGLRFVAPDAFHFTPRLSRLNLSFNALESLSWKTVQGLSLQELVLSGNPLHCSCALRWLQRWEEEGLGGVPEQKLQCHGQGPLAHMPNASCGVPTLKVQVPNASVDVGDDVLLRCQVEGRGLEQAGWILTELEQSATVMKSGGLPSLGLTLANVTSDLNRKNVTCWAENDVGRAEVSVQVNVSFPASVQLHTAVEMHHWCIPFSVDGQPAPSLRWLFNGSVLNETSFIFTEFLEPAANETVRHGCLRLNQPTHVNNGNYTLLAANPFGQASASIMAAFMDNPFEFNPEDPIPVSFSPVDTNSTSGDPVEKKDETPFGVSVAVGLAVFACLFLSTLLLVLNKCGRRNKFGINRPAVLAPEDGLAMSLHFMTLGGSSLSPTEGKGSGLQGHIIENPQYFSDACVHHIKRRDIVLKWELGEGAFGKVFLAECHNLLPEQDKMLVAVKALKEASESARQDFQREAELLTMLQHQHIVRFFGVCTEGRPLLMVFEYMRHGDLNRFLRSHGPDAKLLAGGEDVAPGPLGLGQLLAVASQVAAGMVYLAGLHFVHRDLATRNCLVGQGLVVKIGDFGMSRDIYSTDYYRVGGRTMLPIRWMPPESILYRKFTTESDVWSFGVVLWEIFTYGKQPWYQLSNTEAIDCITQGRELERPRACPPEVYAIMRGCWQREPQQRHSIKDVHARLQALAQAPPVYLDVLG
T8 sequence (P35968 20-1356): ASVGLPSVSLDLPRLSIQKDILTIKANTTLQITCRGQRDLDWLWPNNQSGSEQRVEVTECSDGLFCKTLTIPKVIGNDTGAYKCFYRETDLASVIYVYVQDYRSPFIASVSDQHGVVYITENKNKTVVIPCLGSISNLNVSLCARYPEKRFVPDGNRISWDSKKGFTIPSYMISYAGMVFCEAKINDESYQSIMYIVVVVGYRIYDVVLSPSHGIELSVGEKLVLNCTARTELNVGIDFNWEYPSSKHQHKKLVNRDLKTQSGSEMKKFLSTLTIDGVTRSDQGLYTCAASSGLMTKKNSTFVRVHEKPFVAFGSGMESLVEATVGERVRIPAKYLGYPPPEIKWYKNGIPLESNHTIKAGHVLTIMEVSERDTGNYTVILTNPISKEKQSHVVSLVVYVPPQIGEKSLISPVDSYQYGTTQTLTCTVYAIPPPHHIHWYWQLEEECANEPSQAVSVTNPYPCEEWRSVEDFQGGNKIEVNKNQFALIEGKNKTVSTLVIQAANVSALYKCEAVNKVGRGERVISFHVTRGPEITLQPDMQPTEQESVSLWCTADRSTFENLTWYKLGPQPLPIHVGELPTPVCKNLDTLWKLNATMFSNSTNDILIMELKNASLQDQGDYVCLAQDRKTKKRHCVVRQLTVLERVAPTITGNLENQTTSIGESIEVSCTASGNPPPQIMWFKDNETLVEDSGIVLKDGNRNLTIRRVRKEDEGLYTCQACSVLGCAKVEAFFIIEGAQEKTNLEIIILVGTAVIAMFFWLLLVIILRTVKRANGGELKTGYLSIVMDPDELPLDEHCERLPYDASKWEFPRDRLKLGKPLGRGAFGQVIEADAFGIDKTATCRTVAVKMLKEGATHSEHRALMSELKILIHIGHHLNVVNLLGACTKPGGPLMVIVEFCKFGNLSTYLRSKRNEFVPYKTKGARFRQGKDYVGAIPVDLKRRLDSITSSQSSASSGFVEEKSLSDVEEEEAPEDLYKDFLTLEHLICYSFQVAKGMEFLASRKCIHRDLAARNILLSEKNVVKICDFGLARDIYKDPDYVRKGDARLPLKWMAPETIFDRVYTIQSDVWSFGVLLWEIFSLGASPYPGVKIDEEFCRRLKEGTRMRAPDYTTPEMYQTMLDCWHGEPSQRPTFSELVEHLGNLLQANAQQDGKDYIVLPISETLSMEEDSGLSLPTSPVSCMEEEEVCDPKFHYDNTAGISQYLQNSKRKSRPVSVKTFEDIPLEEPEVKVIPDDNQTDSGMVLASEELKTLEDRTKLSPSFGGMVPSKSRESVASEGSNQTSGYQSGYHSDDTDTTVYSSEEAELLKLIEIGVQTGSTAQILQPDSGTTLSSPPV
T3 sequence (P49841 whole entry): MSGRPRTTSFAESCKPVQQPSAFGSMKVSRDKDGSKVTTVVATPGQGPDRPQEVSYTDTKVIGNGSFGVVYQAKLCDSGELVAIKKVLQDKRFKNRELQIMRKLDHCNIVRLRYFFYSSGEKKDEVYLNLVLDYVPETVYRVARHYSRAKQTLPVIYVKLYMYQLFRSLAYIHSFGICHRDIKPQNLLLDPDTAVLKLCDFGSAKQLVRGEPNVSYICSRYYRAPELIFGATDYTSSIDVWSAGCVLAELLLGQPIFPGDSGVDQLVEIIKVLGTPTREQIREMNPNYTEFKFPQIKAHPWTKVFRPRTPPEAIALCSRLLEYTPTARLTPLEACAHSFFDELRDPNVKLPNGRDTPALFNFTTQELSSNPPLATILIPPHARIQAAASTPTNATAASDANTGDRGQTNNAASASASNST
T10 sequence (P35354 18-604): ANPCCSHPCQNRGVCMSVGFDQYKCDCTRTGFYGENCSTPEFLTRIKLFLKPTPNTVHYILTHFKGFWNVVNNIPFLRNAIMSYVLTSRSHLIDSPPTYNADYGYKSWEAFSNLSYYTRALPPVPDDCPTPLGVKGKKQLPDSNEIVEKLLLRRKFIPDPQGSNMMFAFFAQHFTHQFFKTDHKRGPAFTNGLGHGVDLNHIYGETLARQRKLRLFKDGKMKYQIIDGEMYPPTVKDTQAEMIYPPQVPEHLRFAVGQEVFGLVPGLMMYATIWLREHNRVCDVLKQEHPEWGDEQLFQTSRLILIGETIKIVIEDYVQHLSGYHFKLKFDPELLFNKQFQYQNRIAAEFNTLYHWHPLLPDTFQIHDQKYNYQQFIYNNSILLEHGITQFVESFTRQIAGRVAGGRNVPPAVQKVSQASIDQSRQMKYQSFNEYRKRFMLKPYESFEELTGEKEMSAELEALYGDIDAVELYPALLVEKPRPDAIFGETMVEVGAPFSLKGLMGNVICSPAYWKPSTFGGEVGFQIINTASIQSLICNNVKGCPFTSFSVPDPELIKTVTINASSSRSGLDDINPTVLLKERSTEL
T2 sequence (P24557 whole entry): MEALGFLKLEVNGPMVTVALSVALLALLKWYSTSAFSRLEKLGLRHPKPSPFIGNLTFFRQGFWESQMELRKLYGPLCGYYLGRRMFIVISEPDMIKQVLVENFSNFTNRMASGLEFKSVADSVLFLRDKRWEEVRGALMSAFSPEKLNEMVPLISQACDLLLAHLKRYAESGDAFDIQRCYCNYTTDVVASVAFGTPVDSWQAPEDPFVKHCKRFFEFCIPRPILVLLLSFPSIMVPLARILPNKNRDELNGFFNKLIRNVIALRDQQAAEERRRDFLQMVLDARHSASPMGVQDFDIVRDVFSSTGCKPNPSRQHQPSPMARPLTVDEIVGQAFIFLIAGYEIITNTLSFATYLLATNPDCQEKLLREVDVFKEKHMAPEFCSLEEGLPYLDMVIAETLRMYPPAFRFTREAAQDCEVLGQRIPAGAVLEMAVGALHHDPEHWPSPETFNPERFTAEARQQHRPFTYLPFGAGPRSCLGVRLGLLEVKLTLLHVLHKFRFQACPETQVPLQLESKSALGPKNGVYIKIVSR
T9 sequence (O14965 whole entry): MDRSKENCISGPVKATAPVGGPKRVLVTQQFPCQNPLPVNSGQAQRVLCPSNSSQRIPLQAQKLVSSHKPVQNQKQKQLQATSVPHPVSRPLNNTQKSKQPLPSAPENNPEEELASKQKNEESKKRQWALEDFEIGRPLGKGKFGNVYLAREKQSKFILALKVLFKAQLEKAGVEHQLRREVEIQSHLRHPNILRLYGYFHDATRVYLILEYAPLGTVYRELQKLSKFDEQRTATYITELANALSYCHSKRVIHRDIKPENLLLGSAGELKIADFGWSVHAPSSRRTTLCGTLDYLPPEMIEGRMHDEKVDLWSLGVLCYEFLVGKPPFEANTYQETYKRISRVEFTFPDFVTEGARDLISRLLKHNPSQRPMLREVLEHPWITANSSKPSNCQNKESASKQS
T5 sequence (Q9Y233 267-1055 limits assumed): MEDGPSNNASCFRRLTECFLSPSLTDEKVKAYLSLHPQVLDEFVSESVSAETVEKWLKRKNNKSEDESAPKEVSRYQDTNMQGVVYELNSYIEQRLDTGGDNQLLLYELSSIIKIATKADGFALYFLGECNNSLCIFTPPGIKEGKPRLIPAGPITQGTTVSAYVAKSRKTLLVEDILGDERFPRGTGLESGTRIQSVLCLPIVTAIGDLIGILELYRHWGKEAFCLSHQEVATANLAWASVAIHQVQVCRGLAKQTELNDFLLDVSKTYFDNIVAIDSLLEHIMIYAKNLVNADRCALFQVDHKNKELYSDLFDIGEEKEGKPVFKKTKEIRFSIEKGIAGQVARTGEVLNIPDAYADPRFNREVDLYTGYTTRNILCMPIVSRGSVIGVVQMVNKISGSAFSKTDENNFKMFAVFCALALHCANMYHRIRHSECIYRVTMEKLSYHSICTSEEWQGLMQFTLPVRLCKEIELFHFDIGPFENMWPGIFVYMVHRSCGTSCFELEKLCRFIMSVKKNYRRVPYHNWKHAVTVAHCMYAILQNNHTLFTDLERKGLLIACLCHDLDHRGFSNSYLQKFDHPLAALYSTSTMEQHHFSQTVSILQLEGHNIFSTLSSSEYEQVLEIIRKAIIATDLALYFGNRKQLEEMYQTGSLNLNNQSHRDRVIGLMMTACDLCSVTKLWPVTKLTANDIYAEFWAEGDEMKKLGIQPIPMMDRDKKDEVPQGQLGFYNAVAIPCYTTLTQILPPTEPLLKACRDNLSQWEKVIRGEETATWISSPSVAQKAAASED

Take `Cn1cc2cc(-c3cc4[nH]nc(C5CC5)c4n(-c4ccc(OC(F)F)cc4)c3=O)ccc2n1` [AZ’9567]: the Ki in [1] amounted to 28.9 µM. In addition, the “distribution of the compound in liver sections” value in [2] is “mostly homogenously across the liver with hotspots of increased abundance in the blood vessels”. Moreover, the IC50 in series [3] worked out at 9 µM; in series [4], 1.6 µM; in series [5] it was 49.9 µM; in series [6], 10.8 µM; in [7], 4.1 µM; in [8] it was 38.3 µM. Besides, the IC50 in series [9] is 9.5 µM; in series [10], 84.1 µM; in [11], 44 µM.
